Data taken from US3970703A, “Phenylacetic acid derivatives” (Sumitomo Chemical Company, Limited, priority 1970, dated 1976).
Several values for one entry are separate records, joined by “and”; a condition that tells them apart may be missing. Identical values can stand only once. Like-named read-outs stand apart in the source and are kept apart here.

Key:
[1] = in words, background; cited from earlier work
[2] = tested on: housefly adults; format: in vivo
[3] = tested on: house fly adults; experiment: Oil spray test, Campbell's turn table method (Test Examples 1 and 2); conditions: Musca domestica, topical, 24 h, read-out: killing ratio
[4] = tetramethrin + 5 times weight of synergist, relative to tetramethrin alone of same batch
[5] = tetramethrin + 5 times weight of synergist, three batches (tetramethrin alone 0.530, 0.520, 0.570)
[6] = insecticide alone, no synergist (reference 1.0)
[7] = insecticide alone, no synergist
[8] = 3,4-dimethylphenyl-N-methylcarbamate + synergist, relative to insecticide alone
[9] = 3,4-dimethylphenyl-N-methylcarbamate + synergist, three batches
[10] = allethrin + 5 times weight of synergist, relative to allethrin alone
[11] = allethrin + 5 times weight of synergist, three batches
[12] = natural pyrethrin + 5 times weight of synergist, relative to natural pyrethrin alone
[13] = natural pyrethrin + 5 times weight of synergist, three batches
[14] = present compound alone, no insecticide

SMILES: CCCCC(CC)CN1C(=O)C2C3C=CC(C3)C2C1=O (stereo not shown) [MGK-264, N-(2-ethylhexyl)bicyclo[2,2,1]-hept-5-ene-anhydro-phthalic acid-2,3-dicarboxyimide]
- synergistic effect on allethrin compared with natural pyrethrin [1]: more excellent synergistic effect on allethrin than that on natural pyrethrin

SMILES: C#CCOC(=O)C(OC)(c1ccccc1)C1CCCCC1 (stereo not drawn) [Present compound (9), Propargyl α-cyclohexyl-α-methoxyphenylacetate]
- Ratio of enhancing the killing effect [2, 4]: 4.8
- LD50 [2, 5]: 0.111 γ/Fly

SMILES: C#CCCCCOC(=O)C(CCC)(OCC)c1ccccc1 (stereo not shown) [Present compound (17)]
- Ratio of enhancing the killing effect [2, 4]: 8.3
- LD50 [2, 5]: 0.063 γ/Fly

SMILES: CNC(=O)Oc1cccc2ccccc12 [Carbaryl, reference compound]
- Ratio of enhancing the killing effect [2, 6]: 1.0

SMILES: C#CCOC(=O)C(CCC=C)(OC)c1ccccc1 (stereo not drawn) [Present compound (4), Propargyl α-butenyl-α-methoxyphenylacetate]
- Ratio of enhancing the killing effect [2, 4]: 7.5
- LD50 [2, 5]: 0.071 γ/Fly

SMILES: CC(C)=CC1C(C(=O)OCN2C(=O)C3=C(CCCC3)C2=O)C1(C)C (stereo not shown) [Tetramethrin, N-chrysanthemoxymethyl-3,4,5,6-tetrahydrophthalimide, reference compound]
- LD50 [2, 7]: 0.530 γ/Fly and 0.520 γ/Fly and 0.570 γ/Fly
- Ratio of enhancing the killing effect [2, 6]: 1.0
- mortality at 0.05 % [3]: 52%

SMILES: C#CCOC(=O)C(CC=C)(OCCC)c1ccccc1 (stereo not drawn) [Present compound (7), Propargyl α-allyl-α-(n-propyloxy)-phenylacetate]
- Ratio of enhancing the killing effect [2, 4]: 7.9
- LD50 [2, 5]: 0.067 γ/Fly

SMILES: C#CCOCC(CC(C)C)(OCC=C)c1ccccc1 (stereo not drawn) [Present compound (22), Propargyl α-(iso-butyl)-α-allyloxyphenethyl ether]
- Ratio of enhancing the killing effect [2, 4]: 10.2
- LD50 [2, 5]: 0.056 γ/Fly

SMILES: CCCCOCCOCCOCc1cc2c(cc1CCC)OCO2 [Piperonyl butoxide, α-[2-(butoxyethoxy)-ethoxy]-4,5-methylene-dioxy-2-propyltoluene]
- synergistic effect on allethrin and other synthetic pyrethroids [1]: somewhat inferior
- synergistic effect on natural pyrethrin [1]: prominent synergistic effect

SMILES: CNC(=O)Oc1ccc(C)c(C)c1 [3,4-Dimethylphenyl-N-methylcarbamate, 3,4-dimethylphenyl-N-methylcarbamate, reference compound]
- LD50 [2, 7]: ≥ 5 γ/Fly
- Ratio of enhancing the killing effect [2, 6]: 1.0

SMILES: C#CCCOC(=O)C(OCCC#C)(c1ccccc1)c1ccccc1 [Present compound (18)]
- Ratio of enhancing the killing effect [2, 4]: 11.1
- LD50 [2, 5]: 0.047 γ/Fly

SMILES: C#CCCOC(=O)C(OC)(c1ccccc1)c1ccccc1 [Present compound (16)]
- Ratio of enhancing the killing effect [2, 8]: ≥ 20
- LD50 [2, 9]: 0.25 γ/Fly
- Ratio of enhancing the killing effect [2, 10]: 7.2
- LD50 [2, 11]: 0.083 γ/Fly
- Ratio of enhancing the killing effect [2, 12]: 5.5
- LD50 [2, 13]: 0.064 γ/Fly
- Ratio of enhancing the killing effect [2, 4]: 9.5
- LD50 [2, 5]: 0.055 γ/Fly

SMILES: C#CCOC(=O)C(CC=C)(OC)c1ccccc1 (stereo not drawn) [Present compound (3), Propargyl α-allyl-α-methoxyphenylacetate]
- Ratio of enhancing the killing effect [2, 8]: ≥ 18
- LD50 [2, 9]: 0.273 γ/Fly
- Ratio of enhancing the killing effect [2, 10]: 7.4
- LD50 [2, 11]: 0.076 γ/Fly
- Ratio of enhancing the killing effect [2, 12]: 5.1
- LD50 [2, 13]: 0.079 γ/Fly
- Ratio of enhancing the killing effect [2, 4]: 8.3
- LD50 [2, 5]: 0.064 γ/Fly

SMILES: C#CCOC(=O)C(CCCCCC)(OC)c1ccccc1 (stereo not drawn) [Present compound (8), Propargyl α-(n-hexyl)-α-methoxyphenylacetate]
- Ratio of enhancing the killing effect [2, 4]: 4.5
- LD50 [2, 5]: 0.128 γ/Fly

SMILES: C#CCOC(=O)C(OC)(c1ccccc1)C(C)C (stereo not drawn) [Present compound (2), Propargyl α-(iso-propyl)-α-methoxyphenylacetate]
- LD50 [2, 14]: ≥ 2 γ/Fly
- Ratio of enhancing the killing effect [2, 4]: 8.7
- LD50 [2, 5]: 0.061 γ/Fly

SMILES: C#CCOC(=O)C(CCC)(OC)c1ccccc1 (stereo not drawn) [Present compound (1), Propargyl α-(n-propyl)-α-methoxyphenylacetate]
- Ratio of enhancing the killing effect [2, 8]: ≥ 18
- LD50 [2, 9]: 0.278 γ/Fly
- Ratio of enhancing the killing effect [2, 10]: 6.6
- LD50 [2, 11]: 0.085 γ/Fly
- Ratio of enhancing the killing effect [2, 12]: 4.9
- LD50 [2, 13]: 0.082 γ/Fly
- LD50 [2, 14]: ≥ 2 γ/Fly
- Ratio of enhancing the killing effect [2, 4]: 7.8
- LD50 [2, 5]: 0.068 γ/Fly

SMILES: C#CCOC(=O)C(CC=C)(OCC)c1ccccc1 (stereo not drawn) [Present compound (5), Propargyl α-allyl-α-ethoxyphenylacetate]
- Ratio of enhancing the killing effect [2, 8]: ≥ 21
- LD50 [2, 9]: 0.238 γ/Fly
- Ratio of enhancing the killing effect [2, 10]: 9.8
- LD50 [2, 11]: 0.057 γ/Fly
- Ratio of enhancing the killing effect [2, 12]: 5.6
- LD50 [2, 13]: 0.071 γ/Fly
- Ratio of enhancing the killing effect [2, 4]: 12.5
- LD50 [2, 5]: 0.042 γ/Fly

SMILES: C#CCOCC(CC=C)(OCC)c1ccccc1 (stereo not drawn) [Present compound (21), Propargyl α-allyl-α-ethoxyphenethyl ether]
- Ratio of enhancing the killing effect [2, 4]: 9.5
- LD50 [2, 5]: 0.060 γ/Fly

SMILES: C#CCOC(=O)C(CC(C)C)(OC)c1ccccc1 (stereo not drawn) [Present compound (6), Propargyl α-(iso-butyl)-α-methoxyphenylacetate]
- Ratio of enhancing the killing effect [2, 4]: 8.0
- LD50 [2, 5]: 0.066 γ/Fly

SMILES: CC(C)=CC1C(C(=O)OCc2coc(Cc3ccccc3)c2)C1(C)C (stereo not shown) [Chrysron, 5-benzyl-3-furylmethyl chrysanthemate, reference compound]
- LD50 ([2]; in vivo): 0.026 γ/Fly and 0.024 γ/Fly and 0.027 γ/Fly
- Ratio of enhancing the killing effect [2, 6]: 1.0

SMILES: C=CCOC(=O)C(Cc1ccccc1)(OC)c1ccccc1 (stereo not drawn) [Present compound (13), Allyl α-benzyl-α-methoxyphenylacetate]
- Ratio of enhancing the killing effect [2, 4]: 10.4
- LD50 [2, 5]: 0.050 γ/Fly

SMILES: C#CCOC(=O)C(Cc1ccccc1)(OC)c1ccccc1 (stereo not drawn) [Present compound (11), Propargyl α-benzyl-α-methoxyphenylacetate]
- Ratio of enhancing the killing effect [2, 8]: ≥ 24
- LD50 [2, 9]: 0.21 γ/Fly
- Ratio of enhancing the killing effect [2, 10]: 10.0
- LD50 [2, 11]: 0.060 γ/Fly
- Ratio of enhancing the killing effect [2, 12]: 6.5
- LD50 [2, 13]: 0.054 γ/Fly
- Ratio of enhancing the killing effect [2, 4]: 11.3
- LD50 [2, 5]: 0.046 γ/Fly

SMILES: C#CCCOC(=O)C(CC=C)(OC)c1ccccc1 (stereo not shown) [Present compound (10)]
- LD50 [2, 14]: ≥ 2 γ/Fly
- Ratio of enhancing the killing effect [2, 4]: 6.9
- LD50 [2, 5]: 0.077 γ/Fly

SMILES: C#CCC(OC)(C(=O)OCC=C)c1ccccc1 (stereo not drawn) [Present compound (15), Allyl α-propargyl-α-methoxyphenylacetate]
- Ratio of enhancing the killing effect [2, 4]: 8.7
- LD50 [2, 5]: 0.060 γ/Fly

SMILES: C#CCOCC(CC=C)(OC)c1ccccc1 (stereo not shown) [Present compound (20)]
- Ratio of enhancing the killing effect [2, 8]: ≥ 19
- LD50 [2, 9]: 0.252 γ/Fly
- Ratio of enhancing the killing effect [2, 10]: 9.8
- LD50 [2, 11]: 0.062 γ/Fly
- Ratio of enhancing the killing effect [2, 12]: 7.0
- LD50 [2, 13]: 0.056 γ/Fly
- Ratio of enhancing the killing effect [2, 4]: 10.8
- LD50 [2, 5]: 0.053 γ/Fly

SMILES: C#CCCOCC(CCC)(OC)c1ccccc1 (stereo not shown) [Present compound (26)]
- Ratio of enhancing the killing effect [2, 4]: 7.0
- LD50 [2, 5]: 0.081 γ/Fly

SMILES: C#CCOC(=O)C(OC)(c1ccccc1)c1cccs1 (stereo not drawn) [Present compound (14), Propargyl α-(2-thienyl)-α-methoxyphenylacetate]
- Ratio of enhancing the killing effect [2, 4]: 8.1
- LD50 [2, 5]: 0.064 γ/Fly

SMILES: C#CCCCCOCC(CCC)(OC)c1ccccc1 (stereo not shown) [Present compound (27)]
- Ratio of enhancing the killing effect [2, 4]: 7.0
- LD50 [2, 5]: 0.081 γ/Fly

SMILES: C=CCC1=C(C)C(OC(=O)C2C(C=C(C)C)C2(C)C)CC1=O (stereo not shown) [Allethrin, reference compound]
- LD50 [2, 7]: 0.560 γ/Fly and 0.60 γ/Fly and 0.610 γ/Fly
- Ratio of enhancing the killing effect [2, 6]: 1.0

SMILES: C#CCOCC(CCC)(OC)c1ccccc1 (stereo not drawn) [Present compound (19), Propargyl α-(n-propyl)-α-methoxyphenethyl ether]
- Ratio of enhancing the killing effect [2, 4]: 8.5
- LD50 [2, 5]: 0.067 γ/Fly

SMILES: C#CCOC(=O)C(Cc1ccccc1)(OCC)c1ccccc1 (stereo not drawn) [Present compound (12), Propargyl α-benzyl-α-ethoxyphenylacetate]
- Ratio of enhancing the killing effect [2, 4]: 10.0
- LD50 [2, 5]: 0.052 γ/Fly
